Measurements: patent US20250008959A1, “HERBICIDES AND USE THEREOF” (Projini Agchem LTD, priority 2021, published 2025)

Key:
Arabidopsis thaliana = test: Root elongation in plates (in planta root elongation assay); format: in vivo; conditions: 168 h, A. thaliana on MS medium plates, 7 days, read-out: Root-growth inhibition %
Protocol: 6-well plates were prepared in a biological hood with sterile half Murashige and Skoog mineral medium (MS; Duchefa, Haarlem, Netherlands) containing 1% sucrose (w/v), pH 5.8. Tested molecules were dissolved in 50 mM DMSO and diluted to various concentrations 1,000-fold greater than the final desired concentration the MS medium maintaining a final concentration of 0.1% DMSO. MS medium with 0.1% DMSO was used as a negative control. After 7 days the plates were scanned and the root length was calculated using the imageJ software. […] Further sterilization was done by washing the seeds with 50% hypochlorite and 0.2% Triton x-100 for 10 minutes followed by five cycles of washing with sterile water. Six seeds were placed in each well, and the plates were covered and sealed with parafilm. Plates were placed vertically at 4° C. for two days and then transferred to a growth chamber for seven days (22-24° C.) at day/light cycles of 16/8 hours. Following the in vitro evaluation, selected molecules were tested for their ability to inhibit A. thaliana root elongation on agar plates. Seeds were plated on medium containing the molecules dissolved in the indicated concentrations and root length was measured after 6 or 7 days when the root in the non-treated plate reached the end of the well.

[1] = target: T1, OASS-SAT complex (AtOASS with SAT-derived peptide) (Arabidopsis thaliana, UniProt P47998); test: Fluorescence polarization (FP) competition with FITC-labeled SAT-derived peptide bound to OASS; format: binding; conditions: competition with FITC-SAT peptide 200 nM, OASS 2.2 μM; for IC50: single site inhibition model
T1 construct: GST (N, cleaved yes); made in house; host or cells: E. coli Rosetta (DE3)
T1 sequence (P47998 whole entry, one chain of several): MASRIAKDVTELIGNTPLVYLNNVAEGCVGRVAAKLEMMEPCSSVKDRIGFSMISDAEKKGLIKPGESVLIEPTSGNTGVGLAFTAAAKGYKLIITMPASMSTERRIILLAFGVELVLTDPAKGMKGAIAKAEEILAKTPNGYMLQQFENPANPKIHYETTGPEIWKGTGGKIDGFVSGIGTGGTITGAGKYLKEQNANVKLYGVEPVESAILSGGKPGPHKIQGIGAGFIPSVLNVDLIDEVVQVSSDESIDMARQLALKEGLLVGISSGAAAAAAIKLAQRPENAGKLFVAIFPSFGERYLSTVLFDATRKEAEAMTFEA
Protocol: Molecules were also tested for their ability to compete with the OASS binding to the SAT-derived peptide via a fluorescence polarization (FP) competition assay wherein the N-terminus labeled peptide was incubated with the AtOASS (see Examples section below). High FP values correspond to the peptide-bound state (low molecule concentrations) and low FP values correspond to the peptide-free state (low FP values). To extract the IC50, the FP data were fitted to a single site inhibition model in PRISM by GraphPad Software. The corresponding IC50 values were extracted, whereas low IC50 values correspond to molecule that better competes with the peptide binding to AtOASS. Fluorescence polarization (FP) measurements were made on samples arrayed in 96-well plates by using BioTek H1 Synergy instrument equipped with FP module. […] The peptide in a concentration of 200 nM was incubated with OASS at a concentration of 2.2 μM in each well. Variable concentrations of each molecule starting from 100 μM down to 0.048 μM were added to evaluate the ability of each molecule to compete off the FITC labeled peptide bound to OASS. Fluorescence experiments were executed with an Em/Exc wavelengths of 480/520 nm. All measurements were done in triplicate. Experimental polarization data from simple and competitive binding experiments were fitted using GraphPad Prism, with error bars representing SD. Molecules were also tested for their ability to compete with the OASS binding to the SAT-derived peptide via a fluorescence polarization (FP) competition assay. The N-terminus labeled peptide was incubated with the AtOASS in each of the wells in a 96-well plate. Various concentrations of the molecules were added and the FP values were recorded. High FP values correspond to the peptide-bound state (low molecule concentrations) and low FP values correspond to the peptide-free state (low FP values). To extract the IC50, the FP data were fitted to a single site inhibition model in graphpad prism. The corresponding IC50 values were extracted. Low IC50 values correspond to molecule that better competes with the peptide binding to AtOASS.

[2] = target: T2, AtOASS (O-acetyl serine sulfhydrylase from Arabidopsis thaliana) (Arabidopsis thaliana, UniProt P47998); test: Isothermal titration calorimetry (ITC) binding to OASS; conditions: for Kd: OASS titrated into compound in ITC cell, single binding model
T2 construct: GST (N, cleaved yes); made in house; host or cells: E. coli Rosetta (DE3)
T2 sequence (P47998 whole entry): as the sequence (P47998 whole entry, one chain of several) above
Excerpt: To evaluate the ability of the molecules to bind AtOASS (O-acetyl serine sulfhydrylase from Arabidopsis thaliana), the protein was placed in the ITC syringe and was titrated with the molecules that were placed in the ITC cell (see Examples section below). The direct dissociation binding constant (Kd) was then extracted from the binding curve using a single binding model, wherein a low Kd value corresponds to a stronger binding affinity.
To evaluate the binding of the small molecules to the enzyme OASS, the purified protein was placed in a 6-8 MWCO dialysis bag in 30 mM phosphate buffer, 30 mM NaCl, 1 mM TCEP, and 5% dimethyl sulfoxide. Sequential buffer exchange dialyses were executed for 12 hours each at 4° C. until dilution of >10,000 was achieved. Before the execution of the ITC binding experiment, the OASS was placed in the ITC syringe at a concentration of 400 μM and each of the small molecules was dissolved in the same dialysis buffer to a final concentration of 40 μM in the ITC cell. ITC experiments were conducted by titrating the OASS to the compounds in the cell. The ITC binding constant was evaluated using the build-in analysis software.
The designed de-novo herbicidal compounds were synthesized and evaluated for their in vitro and in planta activity. After dissolving the molecules to a stock of 50 mM in DMSO, binding and competition with the SAT-derived peptides were evaluated using ITC and FP. ITC measures the direct heat change occurring due to the interaction of a pair of molecules. ITC has certain advantages, such as the capability to detect a relatively broad range of binding affinities, being a label-free method, and providing a wide set of interaction parameters, such as affinity, stoichiometry, enthalpy, and entropy of binding. To evaluate the ability of the molecules to bind AtOASS, the protein was placed in the ITC syringe and was titrated with the molecules that were placed in the ITC cell. The direct dissociation binding constant (Kd) was then extracted from the binding curve using a single binding model. Two consecutive experiments were combined using the built in ITC module to enable better quantification. A low Kd value corresponds to a stronger binding affinity.

Compound | inhibition at 50 µM (Arabidopsis thaliana) [%] | FP % inhibition [1] [%] | IC50 [1] [µM] | Kd [2] [µM] | direct binding to AtOASS by ITC (in vitro screening of purchased virtual hits) ([2]; result in words)
CCn1nnc(-c2ccc(O)c(NC(=O)Cc3ccccc3C(=O)O)c2)n1 [PJL-88] | 0 | 10 | 80 |  | 
CC(C)(C)NC(=O)c1ccc(NC(=O)c2ccccc2-c2ccccc2C(=O)O)cc1 [PJL-67] | 9 | 30 | 20.9 | 2.38 | 
CC(C)c1n[nH]c(-c2cccc(NC(=O)Cc3ccccc3C(=O)O)c2)n1 [PJL-96] | 2 | 22 | 43 |  | 
COc1ccc(-c2csc(NC(=O)c3cc(C)ccc3-c3ccccc3C(=O)O)n2)cc1 [PJL-126] | 93 | 58 | 2.1 | 3 | 
O=C(O)c1cc(NS(=S)(=S)c2cnc(-c3ccc(F)cc3)s2)c(F)cc1F [PJL-27] | 25 | 11 | 188 |  | 
O=C(O)c1ccccc1-c1cccnc1C(=O)Nc1nc(-c2ccc(Cl)cc2Cl)cs1 [PJL-115] | 96 | 36 | 12 |  | 
COc1ccc(-c2csc(NC(=O)c3ccc(C)cc3-c3ccccc3C(=O)O)n2)cc1 [PJL-125] |  | 56 | 3.4 |  | 
Cc1ccnc(-n2cc(S(=O)(=O)Nc3ccc(F)cc3C(=O)O)cn2)c1 [PJL-86] | 0 | 36 | 20 |  | 
Nc1cc(F)ccc1-c1csc(NC(=O)c2ccccc2-c2ccccc2C(=O)O)n1 [PJL-111] | 66 | 45 |  |  | 
O=C(Cc1ccccc1C(=O)O)Nc1cc(C(=O)Nc2cccnc2)ccc1F [PJL-91] |  | 13 | 55 |  | 
COc1ccc(C(=O)O)c(NS(=O)(=O)c2cnn(-c3cccc(C(F)(F)F)c3)c2)c1 [PJL-114] |  | 17 | 41 | 12 | 
COc1ccc(C(=O)O)c(NS(=O)(=O)c2cnn(-c3ccc(F)cc3)c2)c1 [PJL-121] | 72 | 4.6 | 322 |  | 
O=C(O)c1cc(F)ccc1NS(=O)(=O)c1cnn(-c2ccccc2F)c1 [PJL-5] | 56 | 16 | 148 |  | 
CCc1nnc(-c2ccc(O)c(NC(=O)Cc3ccccc3C(=O)O)c2)o1 [PJL-92] | 0 | 13 | 122 |  | 
O=C(O)c1ccccc1-c1cc(O)ccc1C(=O)Nc1nc(-c2ccc(Cl)cc2Cl)cs1 [PJL-130] | 93 | 52 | 3.4 |  | 
CN(C)c1ncn(-c2cccc(NS(=O)(=O)c3cc(C(=O)O)cc4c3CCC4)c2)n1 [PJL-74] | 9 | 26 | 22 |  | 
Cc1cn(-c2ccccc2)nc1NS(=O)(=O)c1cc(C(=O)O)cc2c1CCC2 [PJL-2] | 70 | 11 | 236 |  | 
CC(C)CNC(=O)c1cccc(NC(=O)c2ccccc2-c2ccccc2C(=O)O)c1 [PJS-120] |  |  |  |  | showed direct binding to AtOASS by ITC
COc1ccc(-c2csc(NC(=O)c3cccc(C)c3-c3ccccc3C(=O)O)n2)cc1 [PJL-128] |  | 41 | 18.5 |  | 

Compound | inhibition at 50 µM (Arabidopsis thaliana) [%] | FP % inhibition [1] [%] | IC50 [1] [µM] | Kd [2] [µM] | direct binding to AtOASS by ITC (in vitro screening of purchased virtual hits) ([2]; result in words)
CCc1ccc(C(=O)O)c(NS(=O)(=O)c2cnc(-c3ccc(F)cc3)s2)c1 [PJL-122] |  | 25 |  |  | 
O=C(O)c1ccccc1-c1ccccc1C(=O)Nc1cc(-c2ccc(Cl)cc2Cl)c[nH]c1=O [PJL-120] | 88 | 14 | 115 |  | 
COc1ccc(C(=O)O)c(-c2cc(N)ccc2C(=O)Nc2nc(-c3ccc(Cl)cc3Cl)cs2)c1 [PJL-133] |  | 48 | 7.6 |  | 
O=C(O)c1ccc(Cl)c(S(=O)(=O)Nc2cccc(C(=O)Nc3cccc(C(F)(F)F)c3)c2)c1 [PJS-227] | 39 | 18 | 54.2 |  | 
O=C(O)c1cc2c(c(S(=O)(=O)Nc3cccc(C(=O)Nc4ccccn4)c3)c1)CCC2 [PJL-70] | 0 | 15 |  |  | 
O=C(O)c1cc2c(c(S(=O)(=O)Nc3cccc(-c4noc(C5CCCO5)n4)c3)c1)CCC2 (stereo not shown) [PJL-69] |  | 21 |  | 8.12 | 
CC(=O)Nc1ccc(C(=O)Nc2nc(-c3ccc(Cl)cc3Cl)cs2)c(-c2ccccc2C(=O)O)c1 [PJL-129] |  | 43 | 11 |  | 
CC(C)c1n[nH]c(-c2ccc(NC(=O)Cc3ccccc3C(=O)O)cc2)n1 [PJL-95] | 10 | 27 | 22 |  | 
Cc1cc2cc(NS(=O)(=O)c3cc(C(=O)O)cc4c3CCC4)ccc2[nH]1 [PJL-22] | 0 | 13 | 206 |  | 
COc1ccc(NS(=O)(=O)c2cc(C(=O)O)cc3c2CCC3)cc1Cl [PJL-21] | 0 | 14 | 149 |  | 
O=C(O)c1ccc(O)cc1NS(=O)(=O)c1cnc(-c2ccccc2)o1 [PJL-82] | 0 | 11 | 150 |  | 
COc1ccccc1-n1cc(S(=O)(=O)Nc2ccc(F)cc2C(=O)O)cn1 [PJL-85] | 0 | 15 | 111 |  | 
CC(C)(C)NC(=O)c1cccc(NC(=O)c2ccccc2-c2ccccc2C(=O)O)c1 [PJL-59] | 6 | 19 | 58 |  | 
COc1cc(NS(=O)(=O)c2cnc(-c3ccc(F)cc3)s2)c(C(=O)O)cc1F [PJL-123] |  | 16 |  |  | 
O=C(O)c1ccccc1-c1cc(CO)ccc1C(=O)Nc1nc(-c2ccc(Cl)cc2Cl)cs1 [PJL-131] |  | 42 | 9.3 |  | 
O=C(O)c1ccccc1-c1ccc(O)cc1C(=O)Nc1nc(-c2ccc(Cl)cc2Cl)cs1 [PJL-132] |  | 51 | 4.5 |  | 
O=C(O)c1cc(F)ccc1-c1ccccc1C(=O)Nc1nc(-c2ccc(Cl)cc2Cl)cs1 [PJL-119] | 100 | 52 | 8.56 |  | 
CC(C)Cc1ccc(-c2csc(NC(=O)c3ccccc3-c3ccccc3C(=O)O)n2)cc1 [PJL-108] | 17 | 47 | 4.7 |  | 
